Assay results from article PMC4207550 (Drug Design, Development and Therapy, 2014).

How the values were obtained:
Type in all cases: biochemical
[1] = biological target: human recombinant acetylcholinesterase (hAChE) (Homo sapiens, UniProt P22303); test: Inhibition of hAChE, Ellman method
[2] = biological target: human recombinant butyrylcholinesterase (hBuChE) (Homo sapiens, UniProt P06276); test: Inhibition of hBuChE, Ellman method
human recombinant MAO B [3] = biological target: T1, human recombinant MAO B (Homo sapiens, UniProt P27338); test: Test of reversibility of inhibition of human recombinant MAO B
T1 sequence (P27338 1-520): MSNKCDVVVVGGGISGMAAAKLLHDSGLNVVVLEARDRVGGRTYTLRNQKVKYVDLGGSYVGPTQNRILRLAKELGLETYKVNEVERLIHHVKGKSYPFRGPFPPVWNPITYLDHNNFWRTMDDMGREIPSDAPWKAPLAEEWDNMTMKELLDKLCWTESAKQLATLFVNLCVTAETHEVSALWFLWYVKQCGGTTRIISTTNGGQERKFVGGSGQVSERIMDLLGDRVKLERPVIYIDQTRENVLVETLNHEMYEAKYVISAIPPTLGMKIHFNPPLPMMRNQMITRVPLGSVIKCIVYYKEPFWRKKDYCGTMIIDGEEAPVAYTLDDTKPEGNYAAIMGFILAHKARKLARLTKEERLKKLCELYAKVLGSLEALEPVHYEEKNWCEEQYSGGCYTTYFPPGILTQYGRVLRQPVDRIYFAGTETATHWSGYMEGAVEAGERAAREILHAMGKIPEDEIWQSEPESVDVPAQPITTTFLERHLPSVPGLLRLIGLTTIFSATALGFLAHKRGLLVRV

human recombinant MAO B [4] = biological target: T1, human recombinant MAO B; test: Time-dependent inhibition of human recombinant MAO B; conditions: pre-incubation times 15–60 minutes

Sequence of human recombinant butyrylcholinesterase (hBuChE) (P06276 29-602): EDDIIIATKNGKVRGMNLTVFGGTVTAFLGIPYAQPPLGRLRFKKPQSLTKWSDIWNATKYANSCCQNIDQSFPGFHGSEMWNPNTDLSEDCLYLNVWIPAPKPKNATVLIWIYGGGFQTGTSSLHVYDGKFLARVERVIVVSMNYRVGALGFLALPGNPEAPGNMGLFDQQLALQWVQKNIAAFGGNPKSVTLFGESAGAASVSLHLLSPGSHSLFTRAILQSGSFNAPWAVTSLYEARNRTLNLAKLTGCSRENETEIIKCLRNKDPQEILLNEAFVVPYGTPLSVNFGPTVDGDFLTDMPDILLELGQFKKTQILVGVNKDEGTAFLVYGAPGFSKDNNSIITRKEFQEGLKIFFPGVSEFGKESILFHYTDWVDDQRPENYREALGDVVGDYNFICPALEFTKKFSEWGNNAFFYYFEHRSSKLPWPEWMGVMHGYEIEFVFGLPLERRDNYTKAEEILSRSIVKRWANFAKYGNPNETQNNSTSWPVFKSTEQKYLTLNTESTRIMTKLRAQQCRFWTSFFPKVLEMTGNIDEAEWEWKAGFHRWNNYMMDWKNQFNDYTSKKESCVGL
Sequence of human recombinant acetylcholinesterase (hAChE) (P22303 32-614): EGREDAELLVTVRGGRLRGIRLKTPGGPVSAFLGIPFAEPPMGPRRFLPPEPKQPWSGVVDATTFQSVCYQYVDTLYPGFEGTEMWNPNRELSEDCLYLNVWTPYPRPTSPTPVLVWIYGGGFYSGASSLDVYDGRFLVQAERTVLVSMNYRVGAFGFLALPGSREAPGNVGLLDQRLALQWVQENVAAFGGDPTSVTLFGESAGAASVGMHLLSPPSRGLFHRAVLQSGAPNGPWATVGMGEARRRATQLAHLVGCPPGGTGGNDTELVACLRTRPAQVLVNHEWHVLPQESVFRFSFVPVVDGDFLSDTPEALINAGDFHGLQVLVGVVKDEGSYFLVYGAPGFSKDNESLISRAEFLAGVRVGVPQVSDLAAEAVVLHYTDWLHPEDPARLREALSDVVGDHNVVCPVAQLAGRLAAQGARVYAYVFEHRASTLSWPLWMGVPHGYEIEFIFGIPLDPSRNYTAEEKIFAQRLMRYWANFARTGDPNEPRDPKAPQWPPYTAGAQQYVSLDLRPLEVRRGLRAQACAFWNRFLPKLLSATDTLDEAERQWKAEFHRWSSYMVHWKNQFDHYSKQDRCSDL

| Compound | fold more active than donepezil for the inhibition of hAChE ([1]; vs donepezil) [fold] | IC50 [2] [µM] | fold more potent than donepezil for hBuChE ([2]; vs donepezil) [fold] | IC50 [1] [µM] | reversibility of hMAO B inhibition (human recombinant MAO B [3]; 50 μM, after 100-fold dilution with 1 mM tyramine) | inhibition at 50 µM (human recombinant MAO B [3]; read-out: initial MAO B inhibition) [%] | time dependence of hMAO B inhibition (human recombinant MAO B [4]) |
| --- | --- | --- | --- | --- | --- | --- | --- |
| C#CCNc1nc(NCCCCC2CCN(Cc3ccccc3)CC2)c(C#N)cc1C#N [DPH16] | 3.1 | 0.79 ± 0.11 | 9.2 |  |  |  |  |
| C#CCNc1nc(NCCCCC2CCN(Cc3ccccc3)CC2)c(C#N)c(-c2ccccc2)c1C#N [DPH12] |  | 0.77 ± 0.14 |  |  |  |  |  |
| C#CCN(C)c1nc(NCCCCC2CCN(Cc3ccccc3)CC2)c(C#N)c(-c2ccccc2)c1C#N [DPH9] |  | 1.19 |  |  |  |  |  |
| C#CCN(C)c1nc(NCCCCC2CCN(Cc3ccccc3)CC2)c(C#N)cc1C#N [DPH14] |  | 0.835 ± 0.139 |  | 0.0131 ± 0.0021 | irreversible | 55 | time-dependent inhibition |
